Results from ChEMBL document CHEMBL5360611, “Mycobacterium tuberculosis PptT Inhibitors Based on Heterocyclic Replacements of Amidinoureas” (ACS Med Chem Lett, 2023).
In brackets after ≈: the same amount, converted by molar mass.

How the values were obtained:
[1] = system: Mycobacterium tuberculosis; test: Antimycobacterial activity against Mycobacterium tuberculosis H37Rv assessed as bacterial growth inhibition; assay type: functional
[2] = molecular target: T1, 4'-phosphopantetheinyl transferase PptT (Mycobacterium tuberculosis, UniProt O33336); test: Inhibition of Mycobacterium tuberculosis H37Rv PptT by BpsA-coupled assay
T1 sequence (O33336 whole entry): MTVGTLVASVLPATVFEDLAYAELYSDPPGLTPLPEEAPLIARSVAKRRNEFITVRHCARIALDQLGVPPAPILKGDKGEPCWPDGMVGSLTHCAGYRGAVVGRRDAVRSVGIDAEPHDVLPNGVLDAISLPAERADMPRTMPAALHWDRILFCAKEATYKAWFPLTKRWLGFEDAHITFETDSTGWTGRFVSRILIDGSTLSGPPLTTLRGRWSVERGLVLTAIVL

[3] = molecular target: T1, 4'-phosphopantetheinyl transferase PptT; test: Inhibition of Mycobacterium tuberculosis H37Rv PptT by fluorescence polarization assay
[4] = molecular target: Sodium channel protein type 5 subunit alpha (Homo sapiens, UniProt Q14524); test: Inhibition of human Nav1.5 channel ion channel transfected in HEK cells by automatic patch clamp analysis; assay type: toxicity, cell-based
Sodium channel protein type 5 subunit alpha, sequence (Q14524 whole entry): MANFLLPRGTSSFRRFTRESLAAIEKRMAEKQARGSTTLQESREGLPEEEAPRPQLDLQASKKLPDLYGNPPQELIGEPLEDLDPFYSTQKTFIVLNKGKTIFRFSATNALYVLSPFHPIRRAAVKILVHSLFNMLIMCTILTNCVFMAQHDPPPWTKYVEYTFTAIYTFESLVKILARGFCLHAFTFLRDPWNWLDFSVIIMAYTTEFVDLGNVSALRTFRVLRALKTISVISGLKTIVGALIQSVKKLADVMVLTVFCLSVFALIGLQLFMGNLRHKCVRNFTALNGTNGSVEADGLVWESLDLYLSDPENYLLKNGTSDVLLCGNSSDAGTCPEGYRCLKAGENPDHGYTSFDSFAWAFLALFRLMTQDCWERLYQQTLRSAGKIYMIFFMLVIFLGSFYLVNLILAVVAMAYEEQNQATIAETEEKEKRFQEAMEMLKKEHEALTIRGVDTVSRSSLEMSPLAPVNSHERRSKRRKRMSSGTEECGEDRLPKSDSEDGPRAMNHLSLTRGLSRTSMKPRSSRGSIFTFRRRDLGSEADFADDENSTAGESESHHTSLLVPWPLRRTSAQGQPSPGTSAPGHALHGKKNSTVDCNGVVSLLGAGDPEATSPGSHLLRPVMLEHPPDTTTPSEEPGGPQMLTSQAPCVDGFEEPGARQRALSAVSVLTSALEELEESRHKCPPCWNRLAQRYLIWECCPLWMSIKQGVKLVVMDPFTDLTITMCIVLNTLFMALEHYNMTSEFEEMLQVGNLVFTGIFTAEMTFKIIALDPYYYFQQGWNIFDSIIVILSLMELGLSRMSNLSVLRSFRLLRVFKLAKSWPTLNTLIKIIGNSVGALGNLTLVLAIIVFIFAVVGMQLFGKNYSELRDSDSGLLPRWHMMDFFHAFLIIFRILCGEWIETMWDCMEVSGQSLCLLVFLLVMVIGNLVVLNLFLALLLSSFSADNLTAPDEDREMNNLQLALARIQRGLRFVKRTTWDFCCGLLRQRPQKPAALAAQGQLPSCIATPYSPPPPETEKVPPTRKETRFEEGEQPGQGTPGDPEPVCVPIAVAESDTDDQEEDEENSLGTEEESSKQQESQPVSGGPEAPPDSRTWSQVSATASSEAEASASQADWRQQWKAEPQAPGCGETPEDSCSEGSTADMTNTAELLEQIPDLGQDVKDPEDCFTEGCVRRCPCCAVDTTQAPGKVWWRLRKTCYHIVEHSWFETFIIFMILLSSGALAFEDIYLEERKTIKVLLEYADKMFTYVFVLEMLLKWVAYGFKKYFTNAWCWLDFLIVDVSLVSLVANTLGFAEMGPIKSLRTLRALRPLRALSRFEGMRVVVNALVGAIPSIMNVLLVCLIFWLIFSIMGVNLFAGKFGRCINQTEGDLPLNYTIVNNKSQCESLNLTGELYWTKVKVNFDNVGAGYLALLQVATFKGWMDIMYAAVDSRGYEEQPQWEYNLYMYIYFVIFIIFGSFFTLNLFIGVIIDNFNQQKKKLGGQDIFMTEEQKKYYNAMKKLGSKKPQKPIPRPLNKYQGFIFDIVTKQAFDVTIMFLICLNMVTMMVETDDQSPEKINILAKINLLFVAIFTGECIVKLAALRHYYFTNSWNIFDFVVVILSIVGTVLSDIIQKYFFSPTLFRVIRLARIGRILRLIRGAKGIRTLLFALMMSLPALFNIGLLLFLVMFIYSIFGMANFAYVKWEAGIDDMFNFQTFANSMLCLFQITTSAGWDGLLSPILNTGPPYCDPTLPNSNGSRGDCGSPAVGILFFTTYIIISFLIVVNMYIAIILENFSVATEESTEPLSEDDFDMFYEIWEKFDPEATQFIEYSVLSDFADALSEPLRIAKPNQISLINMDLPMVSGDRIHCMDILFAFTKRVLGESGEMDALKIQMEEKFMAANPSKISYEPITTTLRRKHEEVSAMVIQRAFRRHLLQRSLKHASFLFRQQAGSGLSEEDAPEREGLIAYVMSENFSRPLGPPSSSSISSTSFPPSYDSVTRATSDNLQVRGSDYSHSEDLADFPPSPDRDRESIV

[5] = Cytotoxicity against human THP-1 cells; assay type: toxicity, cell-based; settings: read-out: TC50 (the source's name)
[6] = molecular target: T1, 4'-phosphopantetheinyl transferase PptT; test: Inhibition of Mycobacterium tuberculosis PptT by fluorescence polarization assay
[7] = molecular target: Voltage-dependent L-type calcium channel subunit alpha-1C (Homo sapiens, UniProt Q13936); test: Inhibition of human Cav1.2 cardiac ion channel transfected in HEK cells by automatic patch clamp analysis; assay type: toxicity, cell-based
Voltage-dependent L-type calcium channel subunit alpha-1C, sequence (Q13936 whole entry): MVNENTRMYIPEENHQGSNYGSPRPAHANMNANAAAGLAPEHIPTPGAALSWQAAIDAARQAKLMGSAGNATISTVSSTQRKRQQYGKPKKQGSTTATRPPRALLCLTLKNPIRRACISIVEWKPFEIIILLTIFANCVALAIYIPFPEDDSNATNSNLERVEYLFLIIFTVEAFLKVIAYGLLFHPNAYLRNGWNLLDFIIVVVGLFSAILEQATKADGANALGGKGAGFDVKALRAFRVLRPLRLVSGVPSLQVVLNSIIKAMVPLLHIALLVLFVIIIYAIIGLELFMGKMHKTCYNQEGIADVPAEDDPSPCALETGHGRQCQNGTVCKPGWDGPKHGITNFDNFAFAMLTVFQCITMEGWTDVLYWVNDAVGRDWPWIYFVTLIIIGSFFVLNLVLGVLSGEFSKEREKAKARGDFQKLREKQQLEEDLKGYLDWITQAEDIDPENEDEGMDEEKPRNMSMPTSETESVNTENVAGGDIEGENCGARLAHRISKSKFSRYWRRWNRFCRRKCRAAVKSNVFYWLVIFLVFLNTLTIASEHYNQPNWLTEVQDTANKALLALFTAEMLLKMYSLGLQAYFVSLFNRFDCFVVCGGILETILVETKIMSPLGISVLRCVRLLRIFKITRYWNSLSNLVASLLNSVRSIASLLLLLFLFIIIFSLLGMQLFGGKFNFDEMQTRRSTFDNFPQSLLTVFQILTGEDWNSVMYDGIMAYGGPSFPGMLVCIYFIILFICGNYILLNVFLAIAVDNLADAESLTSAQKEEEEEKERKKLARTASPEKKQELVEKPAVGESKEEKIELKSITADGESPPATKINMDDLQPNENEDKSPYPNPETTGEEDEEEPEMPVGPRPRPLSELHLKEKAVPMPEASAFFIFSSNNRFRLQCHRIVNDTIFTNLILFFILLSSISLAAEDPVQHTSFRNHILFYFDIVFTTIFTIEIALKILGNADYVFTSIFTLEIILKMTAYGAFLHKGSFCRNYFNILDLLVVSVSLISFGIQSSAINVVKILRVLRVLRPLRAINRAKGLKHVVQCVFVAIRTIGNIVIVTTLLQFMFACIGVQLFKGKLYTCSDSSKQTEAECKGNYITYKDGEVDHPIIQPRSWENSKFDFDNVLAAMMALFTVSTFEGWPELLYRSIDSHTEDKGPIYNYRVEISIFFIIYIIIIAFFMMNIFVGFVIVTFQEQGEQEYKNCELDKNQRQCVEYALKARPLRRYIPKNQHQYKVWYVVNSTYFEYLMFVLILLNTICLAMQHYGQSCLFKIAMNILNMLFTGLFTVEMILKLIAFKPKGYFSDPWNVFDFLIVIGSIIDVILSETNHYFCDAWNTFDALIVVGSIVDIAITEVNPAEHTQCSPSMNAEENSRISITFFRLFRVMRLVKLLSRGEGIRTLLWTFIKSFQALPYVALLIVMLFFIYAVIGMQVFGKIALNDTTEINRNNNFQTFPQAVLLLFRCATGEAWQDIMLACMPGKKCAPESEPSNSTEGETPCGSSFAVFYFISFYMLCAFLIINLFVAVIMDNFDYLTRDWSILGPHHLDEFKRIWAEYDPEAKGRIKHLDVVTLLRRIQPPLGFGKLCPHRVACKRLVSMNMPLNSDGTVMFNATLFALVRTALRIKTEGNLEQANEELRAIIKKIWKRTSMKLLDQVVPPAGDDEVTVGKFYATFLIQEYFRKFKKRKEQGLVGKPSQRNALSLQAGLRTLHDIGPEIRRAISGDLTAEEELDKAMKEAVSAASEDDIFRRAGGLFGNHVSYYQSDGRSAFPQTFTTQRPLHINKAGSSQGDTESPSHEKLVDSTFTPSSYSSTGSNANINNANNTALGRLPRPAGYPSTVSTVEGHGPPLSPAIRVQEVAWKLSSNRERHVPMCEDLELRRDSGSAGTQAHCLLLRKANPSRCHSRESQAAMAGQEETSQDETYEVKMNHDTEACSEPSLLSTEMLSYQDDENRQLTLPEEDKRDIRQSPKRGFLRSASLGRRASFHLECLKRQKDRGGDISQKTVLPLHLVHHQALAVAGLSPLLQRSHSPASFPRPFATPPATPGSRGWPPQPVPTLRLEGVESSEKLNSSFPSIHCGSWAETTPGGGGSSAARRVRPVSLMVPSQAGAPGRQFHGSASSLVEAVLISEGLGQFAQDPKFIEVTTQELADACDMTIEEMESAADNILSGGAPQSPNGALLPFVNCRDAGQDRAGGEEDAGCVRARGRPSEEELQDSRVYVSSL

[8] = molecular target: T1, 4'-phosphopantetheinyl transferase PptT; test: Inhibition of his-tagged Mycobacterium tuberculosis PptT expressed in Escherichia coli BL21 cells by BpsA-coupled assay
[9] = Permeability of compound in human Caco-2 cells; assay type: ADME, cell-based; settings: read-out: permeability
[10] = Solubility of compound; assay type: physicochemical
[11] = Lipophilicity, logD of compound at pH 7.4; assay type: physicochemical; settings: buffer
[12] = Cytotoxicity against human HepG2 cells; assay type: toxicity, cell-based; settings: read-out: TC50 (the source's name)
[13] = molecular target: Voltage-gated inwardly rectifying potassium channel KCNH2 (Homo sapiens, UniProt Q12809); test: Inhibition of hERG transfected in HEK cells by automatic patch clamp analysis; assay type: toxicity, cell-based

Structure (SMILES) | MIC90 [1] [µM] | IC50 [2] [µM] | IC50 [3] [µM] | also measured
CCNc1nc(Nc2c(CC)cccc2CC)ccc1OC | 62 (≈ 18.6 µg/mL) | 87 | > 100 | –
CCc1cccc(CC)c1Nc1cccc(NCC(C)C)n1 | 17 (≈ 5.06 µg/mL) | > 100 | > 100 | –
CCc1cccc(CC)c1/N=C1\CN(CC)C(=N)N1 | – | 16 | – | –
C=C(NCC)NC(=O)Nc1c(CC)cccc1CC | 3.1 (≈ 0.81 µg/mL) | – | – | IC50 [4]: 3.8 µM; CC50 [5]: > 30 µM; IC50 [6]: 0.23 µM; IC50 [7]: 8.4 µM; IC50 [8]: 2.3 µM; Papp [9]: 4 ×10⁻⁶ cm/s; solubility [10]: > 1000 µg/mL; logD [11]: 1.09; CC50 [12]: > 30 µM; IC50 [13]: > 30 µM
CCNc1cc(C)cc(Nc2c(CC)cccc2CC)n1 | 22 (≈ 6.24 µg/mL) | 6.4 | – | –
CCNc1ccc(C(F)(F)F)c(Nc2c(CC)cccc2CC)n1 | 43 (≈ 14.5 µg/mL) | 30 | > 100 | IC50 [4]: 14 µM; IC50 [7]: 15 µM; IC50 [13]: > 30 µM
CCc1cccc(CC)c1Nc1cccc(NC)n1 | 42 (≈ 10.7 µg/mL) | 20 | – | IC50 [4]: 3.8 µM; IC50 [7]: < 3 µM; IC50 [13]: 7.5 µM
CCNc1cccc(Nc2c(CC(F)(F)F)cccc2CC(F)(F)F)n1 | > 100 | > 100 | 1.3 | –
CCNc1cccc(Nc2c(C(C)C)cccc2C(C)C)n1 | > 100 | – | > 100 | –
CCc1cccc(CC)c1Nc1cccc(NC(C)C)n1 | 32 (≈ 9.07 µg/mL) | > 100 | > 100 | –
CCNC1=N/C(=N/c2c(Cl)cccc2Cl)CN1 | – | – | – | IC50 [4]: > 30 µM; IC50 [7]: > 30 µM; IC50 [13]: > 30 µM
CCNc1ccc(C)c(Nc2c(CC)cccc2CC)n1 | 55 (≈ 15.6 µg/mL) | 1.8 | – | –
CCNc1ccc(Cl)c(Nc2c(CC)cccc2CC)n1 | > 100 | > 100 | – | –
CCNc1cccc(Nc2c(CC)cc(C(=O)NC)cc2CC)n1 | 69 (≈ 22.5 µg/mL) | – | 3.3 | –
CCc1cccc(CC)c1/N=C1\CNC(=N)N1CC | – | 84 | – | –
CCNc1cccc(Nc2c(CC)cc(S(=O)(=O)NCC)cc2CC)n1 | > 100 | – | 1 | –
CCc1cccc(CC)c1Nc1cccc(NC(C)=O)n1 | 62 (≈ 17.6 µg/mL) | > 100 | > 100 | –
CCNc1ccc(F)c(Nc2c(CC)cccc2CC)n1 | > 100 | 12 | – | –
CCNc1nc(Nc2c(CC)cccc2CC)ccc1F | > 100 | 7.2 | – | –
CCNc1cccc(Nc2c(CC)cccc2CC)n1 | 42 (≈ 11.3 µg/mL) | 3.3 | 0.71 | IC50 [4]: 6.9 µM; IC50 [7]: 8.1 µM; IC50 [13]: 11 µM
CCNc1nc(Nc2c(CC)cccc2CC)ccc1C | 54 (≈ 15.3 µg/mL) | 23 | – | –
CCNc1cccc(Nc2c(C3CC3)cccc2C2CC2)n1 | 22 (≈ 6.46 µg/mL) | 8.4 | – | –
CCNc1cc(OC)cc(Nc2c(CC)cccc2CC)n1 | 16 (≈ 4.79 µg/mL) | 0.72 | 5 | IC50 [4]: 3.7 µM; IC50 [7]: 3.4 µM; IC50 [13]: 5.7 µM
